Results: PubChem BioAssay (NCI)
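In this assay, cells in 96-well plates receive the compound at five concentrations for 48 hours. Endpoints are linearly interpolated between the surrounding concentrations. TGI denotes the concentration required for complete inhibition of growth.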

How the values were obtained:
Test in all cases: NCI tumour cell line growth inhibition, 48 h
CCRF-CEM leukemia = system: CCRF-CEM leukemia
MALME-3M melanoma = system: MALME-3M melanoma
RPMI-8226 leukemia = system: RPMI-8226 leukemia
TK-10 renal = system: TK-10 renal
SK-MEL-5 melanoma = system: SK-MEL-5 melanoma
HOP-62 NSCLC = system: HOP-62 NSCLC
KM20L2 colon = system: KM20L2 colon
A549 NSCLC = system: A549 NSCLC
MOLT-4 leukemia = system: MOLT-4 leukemia
SW-620 colon = system: SW-620 colon
XF 498 CNS = system: XF 498 CNS
U251 CNS = system: U251 CNS
M14 melanoma = system: M14 melanoma
IGROV1 ovarian = system: IGROV1 ovarian
SF-539 CNS = system: SF-539 CNS
SK-OV-3 ovarian = system: SK-OV-3 ovarian
SF-295 CNS = system: SF-295 CNS
DMS 114 small cell lung = system: DMS 114 small cell lung
HL-60(TB) leukemia = system: HL-60(TB) leukemia
LOX IMVI melanoma = system: LOX IMVI melanoma
HOP-18 NSCLC = system: HOP-18 NSCLC
NCI-H23 lung = system: NCI-H23 lung
SK-MEL-28 melanoma = system: SK-MEL-28 melanoma
HCT-116 colon = system: HCT-116 colon
NCI-H522 lung = system: NCI-H522 lung
M19-MEL melanoma = system: M19-MEL melanoma
HT29 colon = system: HT29 colon
DLD-1 colon = system: DLD-1 colon
COLO 205 colon = system: COLO 205 colon
KM12 colon = system: KM12 colon
UACC-62 melanoma = system: UACC-62 melanoma
EKVX NSCLC = system: EKVX NSCLC
ACHN renal = system: ACHN renal
OVCAR-3 ovarian = system: OVCAR-3 ovarian
UACC-257 melanoma = system: UACC-257 melanoma
HCT-15 colon = system: HCT-15 colon
786-0 renal = system: 786-0 renal
NCI-H460 lung = system: NCI-H460 lung
RXF 393 renal = system: RXF 393 renal
SN12C renal = system: SN12C renal
SNB-75 CNS = system: SNB-75 CNS
K-562 leukemia = system: K-562 leukemia
OVCAR-8 ovarian = system: OVCAR-8 ovarian
DMS 273 small cell lung = system: DMS 273 small cell lung
T-47D breast = system: T-47D breast
SF-268 CNS = system: SF-268 CNS
OVCAR-4 ovarian = system: OVCAR-4 ovarian
HCC-2998 colon = system: HCC-2998 colon
SK-MEL-2 melanoma = system: SK-MEL-2 melanoma
DU-145 prostate = system: DU-145 prostate
SNB-19 CNS = system: SNB-19 CNS
HS 578T breast = system: HS 578T breast
MCF7 breast = system: MCF7 breast
NCI-H226 lung = system: NCI-H226 lung
SR leukemia = system: SR leukemia
MDA-MB-231 breast = system: MDA-MB-231 breast
NCI/ADR-RES ovarian = system: NCI/ADR-RES ovarian
CAKI-1 renal = system: CAKI-1 renal
A498 renal = system: A498 renal
OVCAR-5 ovarian = system: OVCAR-5 ovarian
BT-549 breast = system: BT-549 breast
PC-3 prostate = system: PC-3 prostate
UO-31 renal = system: UO-31 renal
MDA-N = system: MDA-N
MDA-MB-435 = system: MDA-MB-435
HOP-92 NSCLC = system: HOP-92 NSCLC
SNB-78 CNS = system: SNB-78 CNS
LXFL 529 NSCLC = system: LXFL 529 NSCLC

O=C(Nc1cc(Cl)ccc1Cl)c1cc2cccc(Cl)c2oc1=O
TGI (CCRF-CEM leukemia): > 100 µM | TGI (MALME-3M melanoma): > 100 µM | TGI (RPMI-8226 leukemia): > 100 µM | TGI (TK-10 renal): > 100 µM | TGI (SK-MEL-5 melanoma): > 100 µM | TGI (HOP-62 NSCLC): > 100 µM | TGI (KM20L2 colon): > 100 µM | TGI (A549 NSCLC): > 100 µM | TGI (MOLT-4 leukemia): > 100 µM | TGI (SW-620 colon): > 100 µM | TGI (XF 498 CNS): > 100 µM | TGI (U251 CNS): > 100 µM | TGI (M14 melanoma): > 100 µM | TGI (IGROV1 ovarian): > 100 µM | TGI (SF-539 CNS): > 100 µM | TGI (SK-OV-3 ovarian): > 100 µM | TGI (SF-295 CNS): > 100 µM | TGI (DMS 114 small cell lung): > 100 µM | TGI (HL-60(TB) leukemia): > 100 µM | TGI (LOX IMVI melanoma): > 100 µM | TGI (HOP-18 NSCLC): > 100 µM | TGI (NCI-H23 lung): > 100 µM | TGI (SK-MEL-28 melanoma): > 100 µM | TGI (HCT-116 colon): > 100 µM | TGI (NCI-H522 lung): > 100 µM | TGI (M19-MEL melanoma): > 100 µM | TGI (HT29 colon): > 100 µM | TGI (DLD-1 colon): > 100 µM | TGI (COLO 205 colon): > 100 µM | TGI (KM12 colon): > 100 µM | TGI (UACC-62 melanoma): > 100 µM | TGI (EKVX NSCLC): > 100 µM | TGI (ACHN renal): > 100 µM | TGI (OVCAR-3 ovarian): > 100 µM | TGI (UACC-257 melanoma): > 100 µM | TGI (HCT-15 colon): > 100 µM | TGI (786-0 renal): > 100 µM | TGI (NCI-H460 lung): > 100 µM | TGI (RXF 393 renal): > 100 µM | TGI (SN12C renal): > 100 µM | TGI (SNB-75 CNS): > 100 µM | TGI (K-562 leukemia): > 100 µM | TGI (OVCAR-8 ovarian): > 100 µM | TGI (DMS 273 small cell lung): > 100 µM

NCCCNCCCCNCCCN
TGI (T-47D breast): 5.91 µM | TGI (CCRF-CEM leukemia): 5.72 µM | TGI (MALME-3M melanoma): > 100 µM | TGI (RPMI-8226 leukemia): 1.59 µM | TGI (TK-10 renal): 18.9 µM | TGI (SK-MEL-5 melanoma): > 100 µM | TGI (SF-268 CNS): > 92.9 µM | TGI (HOP-62 NSCLC): > 100 µM | TGI (OVCAR-4 ovarian): > 21.8 µM | TGI (A549 NSCLC): > 100 µM | TGI (MOLT-4 leukemia): 17.5 µM | TGI (SW-620 colon): 14 µM | TGI (U251 CNS): > 63.7 µM | TGI (HCC-2998 colon): > 76.7 µM | TGI (M14 melanoma): 29.4 µM | TGI (SK-MEL-2 melanoma): > 100 µM | TGI (DU-145 prostate): 23.2 µM | TGI (IGROV1 ovarian): 33.8 µM | TGI (SF-539 CNS): 34.3 µM | TGI (SNB-19 CNS): > 100 µM | TGI (SK-OV-3 ovarian): > 53.9 µM | TGI (HS 578T breast): 98 µM | TGI (SF-295 CNS): > 100 µM | TGI (HL-60(TB) leukemia): 15.2 µM | TGI (LOX IMVI melanoma): 30.5 µM | TGI (MCF7 breast): 13.1 µM | TGI (NCI-H23 lung): > 100 µM | TGI (NCI-H226 lung): > 100 µM | TGI (SR leukemia): > 36.8 µM | TGI (HCT-116 colon): 8.78 µM | TGI (MDA-MB-231 breast): > 60.8 µM | TGI (NCI-H522 lung): 0.879 µM | TGI (NCI/ADR-RES ovarian): > 91.6 µM | TGI (HT29 colon): 76.5 µM | TGI (COLO 205 colon): 11.8 µM | TGI (KM12 colon): > 100 µM | TGI (CAKI-1 renal): 11.6 µM | TGI (UACC-62 melanoma): > 100 µM | TGI (EKVX NSCLC): 38.6 µM | TGI (A498 renal): > 100 µM | TGI (OVCAR-5 ovarian): > 100 µM | TGI (ACHN renal): 9.22 µM | TGI (BT-549 breast): > 24.5 µM | TGI (OVCAR-3 ovarian): > 20.1 µM | TGI (PC-3 prostate): > 100 µM | TGI (UACC-257 melanoma): > 100 µM | TGI (UO-31 renal): 5.02 µM | TGI (HCT-15 colon): 7.63 µM | TGI (786-0 renal): 2.79 µM | TGI (MDA-N): 41.5 µM | TGI (NCI-H460 lung): > 100 µM | TGI (RXF 393 renal): 28.3 µM | TGI (SN12C renal): 15.4 µM | TGI (MDA-MB-435): > 68.2 µM | TGI (SNB-75 CNS): > 100 µM | TGI (HOP-92 NSCLC): 3.41 µM | TGI (K-562 leukemia): > 21.2 µM | TGI (OVCAR-8 ovarian): > 100 µM

CCOC(=O)NC(=O)c1cn(CCOC(=O)NCCCCCCNC(=O)OCCn2cc(C(=O)NC(=O)OCC)c(=O)[nH]c2=O)c(=O)[nH]c1=O
TGI (SNB-78 CNS): > 100 µM | TGI (CCRF-CEM leukemia): > 100 µM | TGI (MALME-3M melanoma): > 100 µM | TGI (RPMI-8226 leukemia): > 100 µM | TGI (SK-MEL-5 melanoma): > 100 µM | TGI (SF-268 CNS): > 100 µM | TGI (HOP-62 NSCLC): > 100 µM | TGI (KM20L2 colon): > 100 µM | TGI (OVCAR-4 ovarian): > 100 µM | TGI (A549 NSCLC): > 100 µM | TGI (MOLT-4 leukemia): > 100 µM | TGI (SW-620 colon): > 100 µM | TGI (U251 CNS): > 100 µM | TGI (HCC-2998 colon): > 100 µM | TGI (M14 melanoma): > 100 µM | TGI (SK-MEL-2 melanoma): > 100 µM | TGI (IGROV1 ovarian): > 100 µM | TGI (LXFL 529 NSCLC): > 100 µM | TGI (SNB-19 CNS): > 100 µM | TGI (SK-OV-3 ovarian): > 100 µM | TGI (SF-295 CNS): > 100 µM | TGI (DMS 114 small cell lung): > 100 µM | TGI (HL-60(TB) leukemia): > 100 µM | TGI (LOX IMVI melanoma): > 100 µM | TGI (HOP-18 NSCLC): > 100 µM | TGI (SK-MEL-28 melanoma): > 100 µM | TGI (NCI-H226 lung): > 100 µM | TGI (HCT-116 colon): > 100 µM | TGI (NCI-H522 lung): > 100 µM | TGI (M19-MEL melanoma): > 100 µM | TGI (HT29 colon): > 100 µM | TGI (DLD-1 colon): > 100 µM | TGI (COLO 205 colon): > 100 µM | TGI (KM12 colon): > 100 µM | TGI (CAKI-1 renal): > 100 µM | TGI (UACC-62 melanoma): > 100 µM | TGI (EKVX NSCLC): > 100 µM | TGI (A498 renal): > 100 µM | TGI (ACHN renal): > 100 µM | TGI (OVCAR-3 ovarian): > 100 µM | TGI (UACC-257 melanoma): > 100 µM | TGI (UO-31 renal): > 100 µM | TGI (HCT-15 colon): > 100 µM | TGI (786-0 renal): > 100 µM | TGI (NCI-H460 lung): > 100 µM | TGI (RXF 393 renal): > 100 µM | TGI (SN12C renal): > 100 µM | TGI (SNB-75 CNS): > 100 µM | TGI (K-562 leukemia): > 100 µM | TGI (OVCAR-8 ovarian): > 100 µM | TGI (DMS 273 small cell lung): > 100 µM
